Data as given in the supplement of paper PMC11061612.

How the values were obtained:
[1] = compound: CCc1c2c(nc3ccc(O)cc13)-c1cc3c(c(=O)n1C2)COC(=O)[C@]3(O)CC [SN-38]; settings: max 0.3 µM
Outline: (§1)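 After 24 hours at 37°C and 5% CO2 in 1536-well plates holding 7.5 μl of DMEM/F12 or RPMI with 10% FBS, cancer cell lines were dosed for 72 hours, with final DMSO typically 0.2%. Viability came from CellTiter-Glo 2.0 luminescence, scaled between the means of blank wells and DMSO wells. A non-linear mixed effects model fitted a two-parameter logistic curve to each dose response to give the single-agent IC50.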

[2] = compound: CCN(CCO)CCCOc1ccc2c(Nc3cc(CC(=O)Nc4cccc(F)c4)[nH]n3)ncnc2c1 [AZD2811]; settings: max 1 µM
Outline: as §1

[3] = compound: COc1cccc(OCCCN)c1-c1cc(Nc2cnc(C#N)cn2)n[nH]1 [Prexasertib]; settings: max 1 µM
Outline: as §1

[4] = compound: CC1=C(C(=CC=C1)Cl)NC(=O)C2=CN=C(S2)NC3=CC(=NC(=N3)C)N4CCN(CC4)CCO [Dasatinib]; settings: max 2 µM
Outline: as §1

[5] = compound: C[C@@H](Oc1cc(-c2cnn(C3CCNCC3)c2)cnc1N)c1c(Cl)ccc(F)c1Cl [Crizotinib]; settings: max 10 µM
Outline: as §1

[6] = compound: CC(=O)c1c(C)c2cnc(Nc3ccc(N4CCNCC4)cn3)nc2n(C2CCCC2)c1=O [Palbociclib]; settings: max 10 µM
Outline: as §1

[7] = compound: COc1nnc2ccc(N3CCC(c4ccc(OCCN5CCN(C)C(=O)[C@H]5C)cc4)CC3)nn12 [AZD5153]; settings: max 1 µM
Outline: as §1

[8] = compound: CN(C)CCCOc1ccc(-c2ccc3ncc4c(c3c2)n(C2CCOCC2)c(=O)n4C)cn1 [AZD0156]
Outline: as §1

[9] = compound: Cc1nc(-c2cn3c(n2)-c2ccc(-c4cnn(C(C)(C)C(N)=O)c4)cc2OCC3)n(C(C)C)n1 [Taselisib]; settings: max 10 µM
Outline: as §1

[10] = compound: CC1(C)CCC(CN2CCN(c3ccc(C(=O)NS(=O)(=O)c4ccc(NCC5CCOCC5)c([N+](=O)[O-])c4)c(Oc4cnc5[nH]ccc5c4)c3)CC2)=C(c2ccc(Cl)cc2)C1 [Venetoclax]; settings: max 1 µM
Outline: as §1

[11] = compound: Cn1cnc2c(F)c(Nc3ccc(Br)cc3Cl)c(C(=O)NOCCO)cc21 [Selumetinib]; settings: max 10 µM
Outline: as §1

[12] = compound: COc1cc2ncnc(Nc3ccc(F)c(Cl)c3)c2cc1OCCCN1CCOCC1 [Gefitinib]; settings: max 10 µM
Outline: as §1

[13] = compound: C=CCn1c(=O)c2cnc(Nc3ccc(N4CCN(C)CC4)cc3)nc2n1-c1cccc(C(C)(C)O)n1 [AZD1775]
Outline: as §1

[14] = compound: C[C@@H](c1ccc2nccn2c1)n1nnc2ncc(-c3cnn(C)c3)nc21 [Savolitinib]; settings: max 1 µM
Outline: as §1

[15] = compound: COc1cccc2c1C(=O)c1c(O)c3c(c(O)c1C2=O)C[C@@](O)(C(=O)CO)C[C@@H]3O[C@H]1C[C@H](N)[C@H](O)[C@H](C)O1 [Doxorubicin]; settings: max 1 µM
Outline: as §1

[16] = compound: O=C(c1cc(Cc2n[nH]c(=O)c3ccccc23)ccc1F)N1CCN(C(=O)C2CC2)CC1 [Olaparib]
Outline: as §1

[17] = compound: Cc1c2c(nn1C)CSCc1cc(n(C)n1)CSc1cc(c3ccccc3c1)OCCCc1c(C(=O)O)n(C)c3c-2c(Cl)ccc13 [AZD5991]; settings: max 1 µM
Outline: as §1

[18] = compound: CC(C)n1c(=O)n(C)c2cnc3cc(F)c(-c4ccc(OCCCN5CCCCC5)nc4)cc3c21 [AZD1390]; settings: max 0.3 µM
Outline: as §1

[19] = compound: CC(=O)Nc1cccc(-n2c(=O)n(C3CC3)c(=O)c3c(Nc4ccc(I)cc4F)n(C)c(=O)c(C)c32)c1 [Trametinib]; settings: max 1 µM
Outline: as §1

[20] = compound: CS(=O)(=O)CCNCc1ccc(-c2ccc3ncnc(Nc4ccc(OCc5cccc(F)c5)c(Cl)c4)c3c2)o1 [Lapatinib]; settings: max 10 µM
Outline: as §1

[21] = compound: CC1=CN2[C@@H](C1)C=NC3=CC(=C(C=C3C2=O)OC)OCCCCCOC4=C(C=C5C(=C4)N=C[C@@H]6CC(=CN6C5=O)C)OC [SG3199]; settings: max 0.001 µM
Outline: as §1

[22] = compound: C[C@@H](Nc1cc(F)cc(F)c1)c1cc(C(=O)N(C)C)cc2c(=O)cc(N3CCOCC3)oc12 [AZD8186]; settings: max 3 µM
Outline: as §1

[23] = compound: CN(CC[C@H](CSC1=CC=CC=C1)NC2=C(C=C(C=C2)S(=O)(=O)NC(=O)C3=CC=C(C=C3)N4CCC(CC4)[C@H](C5=CC=CC=C5C6=CC=C(C=C6)Cl)O)S(=O)(=O)C(F)(F)F)CCO [AZD4320]; settings: max 1 µM
Outline: as §1

[24] = compound: C1CN(CCC1(C(=O)N[C@@H](CCO)C2=CC=C(C=C2)Cl)N)C3=NC=NC4=C3C=CN4 [Capivasertib]
Outline: as §1

[25] = compound: C[C@@H]1COCCN1C2=NC(=NC(=C2)C3(CC3)[S@](=N)(=O)C)C4=C5C=CNC5=NC=C4 [AZD6738]; settings: max 10 µM
Outline: as §1

[26] = compound: Cc1cc2ncnn2cc1Nc1ncc2c(n1)n(C1CCOCC1)c(=O)n2C [AZD7648]; settings: max 10 µM
Outline: as §1

[27] = compound: COc1cc(Nc2ncc3c(n2)-c2ccc(Cl)cc2C(c2c(F)cccc2OC)=NC3)ccc1C(=O)O [Alisertib]; settings: max 10 µM
Outline: as §1

| Cell Line | IC50, cell viability 72 h [1] [nM] | IC50, cell viability 72 h [2] [nM] | IC50, cell viability 72 h [3] [nM] | IC50, cell viability 72 h [4] [nM] | IC50, cell viability 72 h [5] [nM] | IC50, cell viability 72 h [6] [nM] | IC50, cell viability 72 h [7] [nM] | IC50, cell viability 72 h ([8]; max 3 µM) [nM] | IC50, cell viability 72 h [9] [nM] | IC50, cell viability 72 h [10] [nM] | IC50, cell viability 72 h [11] [nM] | IC50, cell viability 72 h [12] [nM] | IC50, cell viability 72 h ([13]; max 3 µM) [nM] | IC50, cell viability 72 h [14] [nM] | IC50, cell viability 72 h [15] [nM] | IC50, cell viability 72 h ([16]; max 10 µM) [nM] | IC50, cell viability 72 h [17] [nM] | IC50, cell viability 72 h [18] [nM] | IC50, cell viability 72 h [19] [nM] | IC50, cell viability 72 h [20] [nM] | IC50, cell viability 72 h [21] [nM] | IC50, cell viability 72 h [22] [nM] | IC50, cell viability 72 h [23] [nM] | IC50, cell viability 72 h ([24]; max 10 µM) [nM] | IC50, cell viability 72 h [25] [nM] | IC50, cell viability 72 h [26] [nM] | IC50, cell viability 72 h [27] [nM] | IC50, cell viability 72 h ([16]; max 3 µM) [nM] | IC50, cell viability 72 h ([24]; max 3 µM) [nM] | IC50, cell viability 72 h ([8]; max 1 µM) [nM] | IC50, cell viability 72 h ([13]; max 1 µM) [nM] |
| --- | --- | --- | --- | --- | --- | --- | --- | --- | --- | --- | --- | --- | --- | --- | --- | --- | --- | --- | --- | --- | --- | --- | --- | --- | --- | --- | --- | --- | --- | --- | --- |
| ALL-PO (B-Lymphoblastic Leukemia) | 2.05 | 6.76 | 17.7 | > 2000 | 1810 | 4650 | 67.2 | > 3000 | 5290 | 733 | > 10000 | > 10000 | 510 | > 1000 | 166 | 7820 | 57.4 | > 300 | > 1000 | 5960 | > 1 | > 3000 | 21.4 | 7800 | 2120 | > 10000 | 55.9 |  |  |  |  |
| BE2-M17 (Neuroblastoma) | 14.5 | > 1000 | 24.9 | > 2000 | 8330 | > 10000 | > 1000 | > 3000 | 2620 | > 1000 | 9300 | > 10000 | 900 | > 1000 | 425 | > 10000 | 324 | > 300 | 127 | > 10000 | > 1 | > 3000 | > 1000 | > 10000 | 4840 | > 10000 | 1910 |  |  |  |  |
| BPH-1 (Non-Cancerous) | 6.84 | > 1000 | > 1000 | 127 | > 10000 | > 10000 | 69.4 | > 3000 | 379 | > 1000 | 4720 | 5900 | 882 | > 1000 | 312 | > 10000 | > 1000 | > 300 | 80.2 | 836 | > 1 | > 3000 | > 1000 | > 10000 | > 10000 | > 10000 | 1350 |  |  |  |  |
| CAL-33 (Oral Cavity Carcinoma) | 5.71 | 255 | 138 | 550 | > 10000 | > 10000 | > 1000 | > 3000 | 122 | > 1000 | > 10000 | > 10000 | 659 | > 1000 | 219 | > 10000 | > 1000 | > 300 | 724 | 3530 | > 1 | > 3000 | > 1000 | > 10000 | 4390 | > 10000 | 553 |  |  |  |  |
| CHP-134 (Neuroblastoma) |  |  |  |  |  |  |  | > 3000 |  |  |  |  | 646 |  |  |  |  |  |  |  |  |  |  |  |  |  |  | > 3000 | > 3000 |  |  |
| Detroit562 (Head and Neck Carcinoma) | 22 | 188 | 29.5 | 115 | 1680 | > 10000 | 65.2 | > 3000 | 355 | > 1000 | > 10000 | > 10000 | 430 | > 1000 | > 1000 | > 10000 | > 1000 | > 300 | > 1000 | 2020 | > 1 | > 3000 | > 1000 | 6950 | 2150 | > 10000 | 760 |  |  |  |  |
| FTC-133 (Thyroid Gland Carcinoma) | 6.51 | > 1000 | 29.2 | > 2000 | > 10000 | > 10000 | 657 |  | > 10000 | > 1000 | > 10000 | > 10000 |  | > 1000 | 352 | > 10000 | 999 | > 300 | > 1000 | > 10000 | > 1 | > 3000 | > 1000 | 8760 | 4690 | > 10000 | 8360 |  |  | > 1000 | 968 |
| HeLa (Cervical Carcinoma) | > 300 | > 1000 | 105 | > 2000 | > 10000 | > 10000 | > 1000 | > 3000 | > 10000 | > 1000 | > 10000 | > 10000 | 893 | > 1000 | > 1000 | > 10000 | > 1000 | > 300 | > 1000 | > 10000 | > 1 | > 3000 | > 1000 | > 10000 | > 10000 | > 10000 | > 10000 |  |  |  |  |
| Hs-746T (Gastric Carcinoma) | > 300 | > 1000 | 66.4 | > 2000 | 683 | > 10000 | 833 | > 3000 | > 10000 | > 1000 | > 10000 | > 10000 | 1440 | 40.9 | > 1000 | > 10000 | > 1000 | > 300 | 254 | > 10000 | > 1 | > 3000 | > 1000 | > 10000 | 9890 | > 10000 | > 10000 |  |  |  |  |
